This is an account of results in PubChem BioAssay AID192 (DTP/NCI, 2004).

Inconclusive results and toxic doses are left out. Peptide text beside a SMILES is read from it.

In the test the test system is BDF1 mice, B16 melanoma ip, median survival T/C. Kind of test: NCI In Vivo Anticancer Drug Screen. Data for tumor model B16 Melanoma (intraperitoneal) in B6D2F1 (BDF1) mice. The conditions noted are these: endpoint: median survival time, higher = longer survival. The gist of the method: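 Read-out: survival or tumor size, given as treated/control ratio. Controls received vehicle only; animals bore transplantable tumors.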

The mark [1] stands for this setting: dose: 25.0 mg/kg/injection, schedule: Q01DX009 (ip), vehicle: water.
The mark [2] stands for this setting: dose: 50.0 mg/kg/injection, schedule: Q01DX009 (ip), vehicle: water.
The mark [3] stands for this setting: dose: 100.0 mg/kg/injection, schedule: Q01DX009 (ip), vehicle: water.
Where [4] appears, read: dose: 50.0 mg/kg/injection, schedule: Q01DX009 (ip), vehicle: saline with Tween-80.
Setting [5] is: dose: 100.0 mg/kg/injection, schedule: Q01DX009 (ip), vehicle: saline with Tween-80.
The mark [6] stands for this setting: dose: 100.0 mg/kg/injection, schedule: Q04DX003 (ip), vehicle: saline with Tween-80.
Where [7] appears, read: dose: 200.0 mg/kg/injection, schedule: Q04DX003 (ip), vehicle: saline with Tween-80.
Where [8] appears, read: dose: 50.0 mg/kg/injection, schedule: Q01DX009 (ip), vehicle: saline.
[9] abbreviates: dose: 100.0 mg/kg/injection, schedule: Q01DX009 (ip), vehicle: saline.
[10] abbreviates: dose: 200.0 mg/kg/injection, schedule: Q01DX009 (ip), vehicle: saline.
[11] abbreviates: dose: 400.0 mg/kg/injection, schedule: Q01DX009 (ip), vehicle: saline.

For `CCN(CC)CCCC(C)NS(=O)(=O)c1cccc2c(N(C)C)cccc12` (centres undefined), the T/C reads like this: (dose: 6.25 mg/kg/injection, schedule: Q01DX009 (ip), vehicle: water) 104 % of control; (dose: 12.5 mg/kg/injection, schedule: Q01DX009 (ip), vehicle: water) 104 % of control; under setting [1], 97 % of control; under setting [2], 98 % of control; under setting [3], 92 % of control.
As for `Cc1ccccc1N(CC1CO1)CC1CO1` (centres undefined), the T/C under setting [4] was 152 % of control and the T/C under setting [5] is 180 % of control.
Take `C#CCOCC(CCl)OC(N)=O` (centres undefined): the T/C by setting is: (dose: 50.0 mg/kg/injection, schedule: Q04DX003 (ip), vehicle: saline with Tween-80) 111 % of control; under setting [6], 105 % of control; under setting [7], 108 % of control.
Consider `CCCCCCCCN(C)/N=N/c1nc[nH]c1C(N)=O`, for which the T/C by setting is: (dose: 37.5 mg/kg/injection, schedule: Q01DX009 (ip), vehicle: saline with Tween-80) 121 % of control; (dose: 75.0 mg/kg/injection, schedule: Q01DX009 (ip), vehicle: saline with Tween-80) 123 % of control.
Turning to `Cc1cc2oc(C)[n+](Cc3ccccc3)c2cc1C`, the T/C under setting [4] is 111 % of control and the T/C under setting [5] is 98 % of control.
On to `CCN1/C(=C/C(C)=C/c2sc3ccccc3[n+]2CC)Sc2ccccc21`, for which the T/C is 104 % of control (dose: 0.03 mg/kg/injection, schedule: Q01DX009 (ip), vehicle: saline with Tween-80); 100 % of control (dose: 0.05 mg/kg/injection, schedule: Q01DX009 (ip), vehicle: saline with Tween-80); 100 % of control (dose: 0.1 mg/kg/injection, schedule: Q01DX009 (ip), vehicle: saline with Tween-80).
Regarding `Cc1cc2c(c(O)c1CN1CCOCC1)C1=C(CCCC1)C(C)(C)O2`, the T/C by setting is: (dose: 32.0 mg/kg/injection, schedule: Q01DX009 (ip), vehicle: Klucel (hydroxypropylcellulose) (HPC)) 108 % of control; (dose: 64.0 mg/kg/injection, schedule: Q01DX009 (ip), vehicle: Klucel (hydroxypropylcellulose) (HPC)) 98 % of control; (dose: 128.0 mg/kg/injection, schedule: Q01DX009 (ip), vehicle: Klucel (hydroxypropylcellulose) (HPC)) 93 % of control; (dose: 256.0 mg/kg/injection, schedule: Q01DX009 (ip), vehicle: Klucel (hydroxypropylcellulose) (HPC)) 103 % of control.
`COc1ccc2c(c1)CCC(c1ccccc1)=C2c1ccc(OCCN2CCCC2)cc1`: the T/C (dose: 6.0 mg/kg/injection, schedule: Q01DX009 (ip), vehicle: saline sonified) is 102 % of control; the T/C (dose: 12.0 mg/kg/injection, schedule: Q01DX009 (ip), vehicle: saline sonified) was 111 % of control; the T/C (dose: 24.0 mg/kg/injection, schedule: Q01DX009 (ip), vehicle: saline sonified) was 111 % of control.
With `CCCCN(C)/N=N/c1nc[nH]c1C(N)=O`, the T/C runs as follows: (dose: 10.0 mg/kg/injection, schedule: Q01DX009 (ip), vehicle: carboxymethylcellulose (CMC)) 111 % of control; (dose: 20.0 mg/kg/injection, schedule: Q01DX009 (ip), vehicle: carboxymethylcellulose (CMC)) 120 % of control; (dose: 25.0 mg/kg/injection, schedule: Q01DX009 (ip), vehicle: saline with Tween-80) 109 % of control; under setting [4], 112 % of control.
Consider `CC#CCOCC1CN(c2ccccc2)C(=O)O1` (centres undefined), for which the T/C is 102 % of control (dose: 25.0 mg/kg/injection, schedule: Q01DX009 (ip), vehicle: saline); 97 % of control under setting [8]; 102 % of control under setting [9]; 97 % of control under setting [6]; 100 % of control under setting [10]; 94 % of control under setting [7]. Further, the T/C was 97 % of control under setting [11] and 94 % of control (dose: 400.0 mg/kg/injection, schedule: Q04DX003 (ip), vehicle: saline with Tween-80).
`O=C(NC(=O)C(Cl)Cl)OC1c2cc(Cl)ccc2-c2c(Cl)cc(Cl)cc21` (centres undefined): the T/C by setting is: (dose: 3.0 mg/kg/injection, schedule: Q01DX009 (ip), vehicle: saline with Tween-80) 93 % of control; (dose: 6.0 mg/kg/injection, schedule: Q01DX009 (ip), vehicle: saline with Tween-80) 97 % of control; (dose: 12.0 mg/kg/injection, schedule: Q01DX009 (ip), vehicle: saline with Tween-80) 86 % of control.
As for `CC(C)NCC(O)c1ccc(O)c(O)c1` (centres undefined), the T/C runs as follows: (dose: 17.5 mg/kg/injection, schedule: Q01DX009 (ip), vehicle: Klucel (hydroxypropylcellulose) (HPC)) 101 % of control; (dose: 35.0 mg/kg/injection, schedule: Q01DX009 (ip), vehicle: Klucel (hydroxypropylcellulose) (HPC)) 99 % of control; (dose: 70.0 mg/kg/injection, schedule: Q01DX009 (ip), vehicle: Klucel (hydroxypropylcellulose) (HPC)) 94 % of control.
Regarding `N=C(N)SCc1ccc(CSC(=N)N)s1`, the T/C reads like this: (dose: 7.5 mg/kg/injection, schedule: Q01DX009 (ip), vehicle: saline) 101 % of control; (dose: 15.0 mg/kg/injection, schedule: Q01DX009 (ip), vehicle: saline) 99 % of control; (dose: 30.0 mg/kg/injection, schedule: Q01DX009 (ip), vehicle: saline) 104 % of control.
As to `COc1cc(NS(C)(=O)=O)ccc1Nc1c2ccc([N+](=O)[O-])cc2nc2c(C)cccc12`, the T/C was 105 % of control (dose: 0.08 mg/kg/injection, schedule: Q01DX009 (ip), vehicle: saline with Tween-80); 107 % of control (dose: 0.15 mg/kg/injection, schedule: Q01DX009 (ip), vehicle: saline with Tween-80); 122 % of control (dose: 0.6 mg/kg/injection, schedule: Q01DX009 (ip), vehicle: saline with Tween-80).
Take `Ic1ccccc1C[N+]12CN3CN(CN(C3)C1)C2`: the T/C is, setting by setting: under setting [4], 97 % of control; under setting [5], 94 % of control; (dose: 200.0 mg/kg/injection, schedule: Q01DX009 (ip), vehicle: saline with Tween-80) 105 % of control.
With `CC(NC(=O)C(C)NC(=O)C(N)CCC(=O)O)C(=O)O` (stereo not drawn) (H-Glu-Ala-Ala-OH; configuration not given here), the T/C under setting [8] was 111 % of control, the T/C under setting [9] was 96 % of control, the T/C under setting [10] is 105 % of control and the T/C under setting [11] is 94 % of control.
As to `Cc1ccc(S(=O)(=O)N2CCn3ncc(C#N)c32)cc1`, the T/C was 100 % of control (dose: 50.0 mg/kg/injection, schedule: Q01DX009 (ip), vehicle: Klucel (hydroxypropylcellulose) (HPC)); 103 % of control (dose: 100.0 mg/kg/injection, schedule: Q01DX009 (ip), vehicle: Klucel (hydroxypropylcellulose) (HPC)); 103 % of control (dose: 200.0 mg/kg/injection, schedule: Q01DX009 (ip), vehicle: Klucel (hydroxypropylcellulose) (HPC)); 96 % of control (dose: 400.0 mg/kg/injection, schedule: Q01DX009 (ip), vehicle: Klucel (hydroxypropylcellulose) (HPC)).
Consider `N=c1c2ncn(Cc3cccc(C(F)(F)F)c3)c2ncn1O`, for which the T/C was 93 % of control (dose: 0.09 mg/kg/injection, schedule: Q01DX009 (ip), vehicle: Klucel (hydroxypropylcellulose) (HPC)); 90 % of control (dose: 0.19 mg/kg/injection, schedule: Q01DX009 (ip), vehicle: Klucel (hydroxypropylcellulose) (HPC)); 97 % of control (dose: 0.25 mg/kg/injection, schedule: Q04DX003 (ip), vehicle: Klucel (hydroxypropylcellulose) (HPC)); 93 % of control (dose: 0.39 mg/kg/injection, schedule: Q01DX009 (ip), vehicle: Klucel (hydroxypropylcellulose) (HPC)); 95 % of control (dose: 0.5 mg/kg/injection, schedule: Q04DX003 (ip), vehicle: Klucel (hydroxypropylcellulose) (HPC)); 91 % of control (dose: 0.78 mg/kg/injection, schedule: Q01DX009 (ip), vehicle: Klucel (hydroxypropylcellulose) (HPC)). Moreover, the T/C was 92 % of control (dose: 1.0 mg/kg/injection, schedule: Q04DX003 (ip), vehicle: Klucel (hydroxypropylcellulose) (HPC)); 107 % of control (dose: 1.4 mg/kg/injection, schedule: Q04DX003 (ip), vehicle: Klucel (hydroxypropylcellulose) (HPC)); 88 % of control (dose: 1.56 mg/kg/injection, schedule: Q01DX009 (ip), vehicle: Klucel (hydroxypropylcellulose) (HPC)); 107 % of control (dose: 2.2 mg/kg/injection, schedule: Q04DX003 (ip), vehicle: Klucel (hydroxypropylcellulose) (HPC)); 95 % of control (dose: 3.3 mg/kg/injection, schedule: Q04DX003 (ip), vehicle: Klucel (hydroxypropylcellulose) (HPC)).
As for `COc1cccc(C(O)c2ccncc2C)c1OC` (centres undefined), the T/C by setting is: under setting [1], 98 % of control; under setting [2], 98 % of control; under setting [3], 101 % of control; (dose: 200.0 mg/kg/injection, schedule: Q01DX009 (ip), vehicle: water) 104 % of control.
